Common to all, as to assay: DTP human tumour cell line panel, 48 h
For assay [1], the system named is HOP-92 NSCLC.
For assay [2], the system named is KM12 colon.
Assay [3] has as its system MALME-3M melanoma.
Assay [4] relates to MDA-MB-231 breast.
In assay [5] the test system is NCI-H226 lung.
Assay [6] concerns OVCAR-3 ovarian.
Assay [7] has as its system SN12C renal.
For assay [8], the system named is T-47D breast.
Assay [9] deals with U251 CNS.
Assay [10] deals with UO-31 renal.

For orientation: GI50 means the concentration giving 50% growth inhibition. By TGI is commonly meant the concentration giving total growth inhibition. Lower therefore signals more potent growth arrest.

SMILES strings stand for the structures. Several values for one entry are separate records, joined by “and”; a condition that tells them apart may be missing. Equal entries are not always repeated.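 Dose response: 5 concentrations. Exposure: 48 h. Format: 96-well plates. Endpoint: linear interpolation; highest concentration if not reached. Abbreviation: GI50, concentration required for 50% inhibition of growth. The concentration for full growth arrest is given as TGI.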

On to `COc1ccc(Cn2c(Br)c3c(c2-c2cc(OC)c(OC)c(OC)c2)CCc2sc(N)nc2-3)cc1`, for which the GI50 was 477 nM in assay [1]; 1180 nM in assay [2]; 438 nM in assay [3]; 1920 nM in assay [4]; 6.93 µM in assay [5]; 861 nM in assay [6]. In addition, the GI50 is 2150 nM in assay [7], 626 nM in assay [8], 1300 nM in assay [9] and 1500 nM in [10]. Besides, the TGI in assay [1] is 2.88 µM; in assay [2], greater than 30 µM; in assay [3], 28.5 µM; in assay [4], 7.1 µM; in assay [5], greater than 50.6 µM; in assay [6] it was 9.61 µM. Further, the total growth inhibition concentration (TGI) came out at 14.2 µM in [7], 21.5 µM in assay [8], 12.7 µM in assay [9] and 17.9 µM in [10].
In the case of `CN(c1ccccc1)c1c2ccccc2nc2[nH]c3ccccc3c12`, the GI50 in assay [1] was 1790 nM; in assay [2], 2240 nM; in assay [3] it was 2240 nM; in assay [4], 1930 nM; in [5], 1.91 µM; in assay [6], 2000 nM. In addition, the GI50 in [7] was 1680 nM; in assay [8], 3840 nM; in assay [9], 1680 nM; in assay [10], 1220 nM. In addition, the total growth inhibition concentration (TGI) in assay [1] was determined as 6.46 µM; in assay [2] it was 7.4 µM; in assay [3], 5.72 µM; in [4], 4.63 µM; in assay [5] it was 4.44 µM; in assay [6], 6.01 µM. The TGI in assay [7] is 5.06 µM; in assay [8], 32.6 µM; in [9], greater than 25.5 µM; in assay [10], 3.66 µM.
As to `Nc1cc(C(F)(F)F)c(-c2nc(N3CCOCC3)nc(N3CCOCC3)n2)cn1`, the concentration for 50% growth inhibition (GI50) is 139 nM in [1]; 835 nM in assay [2]; 98.3 nM in [3]; 703 nM in assay [4]; 0.384 µM in assay [5]; 313 nM in [6]. The GI50 was 416 nM in [7], 32.8 nM in assay [8], 1220 nM in assay [9] and 111 nM in assay [10]. Besides, the total growth inhibition concentration (TGI) in assay [1] amounted to 0.765 µM; in [2], 59.9 µM; in [3], 0.561 µM; in [4], 40.6 µM; in assay [5] it was 12.2 µM; in [6], 11.2 µM. In addition, the TGI was greater than 48.1 µM in assay [7], 0.347 µM in assay [8], 44.2 µM in [9] and 2.08 µM in assay [10].
For `O=C1NC(c2ccccc2Cl)Nc2ccccc21` (stereo not given), the TGI is greater than 100 µM in [1]; greater than 100 µM in assay [2]; greater than 100 µM in assay [3]; greater than 100 µM in [4]; greater than 84.6 µM in assay [5]; 31.3 µM in assay [6]. For the same compound, the total growth inhibition concentration (TGI) was greater than 100 µM in assay [7], greater than 100 µM in assay [8], greater than 69.7 µM in assay [9] and greater than 100 µM in assay [10].
As for `COc1nc(N)nc2nc[nH]c12`, the GI50 in [1] was 511000 nM and 596000 nM; in [2] it was > 800000 nM and 842000 nM; in [3], > 800000 nM and 665000 nM; in [4] it was 641000 nM; in [5] it was 400 µM and 380 µM; in assay [6], 744000 nM and > 856000 nM. Further, the GI50 in [7] was 536000 nM and 552000 nM; in assay [8] it was greater than 779000 nM; in assay [9], > 800000 nM and 741000 nM; in assay [10] it was 161000 nM and 299000 nM. The TGI in [1] is 480 µM and 800 µM and > 1000 µM; in assay [2] it was greater than 1000 µM; in assay [3], 356 µM and > 800 µM and > 1000 µM; in assay [4], 500 µM and > 1000 µM; in assay [5], 458 µM and 800 µM and > 1000 µM; in assay [6] it was 500 µM and 800 µM and > 1000 µM. Moreover, the TGI in assay [7] was 500 µM and 800 µM and > 1000 µM; in assay [8], 500 µM and > 1000 µM; in assay [9], 500 µM and > 800 µM and > 1000 µM; in assay [10], 485 µM and 579 µM and > 1000 µM.
For `FC(F)(F)c1cccc(CNC2CCN(CCc3ccccc3)CC2)c1`, the GI50 in [1] was 11200 nM; in [2], 22500 nM; in assay [3], 16000 nM; in [4], 12600 nM; in [5], 62.4 µM; in [6] it was 32600 nM. Further, the GI50 in assay [7] was 55600 nM; in assay [8], 20000 nM; in assay [9], 15600 nM; in [10], 17000 nM. Besides, the TGI in assay [1] was 47.1 µM; in assay [2], 56.6 µM; in assay [3] it was 31 µM; in [4] it was 35.2 µM; in assay [5], greater than 100 µM; in [6], greater than 100 µM. For the same compound, the concentration for total growth inhibition (TGI) in assay [7] was greater than 100 µM; in [8] it was 52.9 µM; in assay [9] it was 35.6 µM; in [10], greater than 100 µM.
As to `Cc1cccc(Oc2ccc(Nc3ncnc4ccc(NC(=O)CN(C)C)cc34)cc2Cl)c1`, the GI50 is 1400 nM in assay [1]; 2000 nM in assay [2]; 1720 nM in assay [3]; 1720 nM in assay [4]; 11.9 µM in assay [5]; 1160 nM in [6]. In addition, the GI50 in assay [7] was 1340 nM; in [8], 1080 nM; in assay [9], 1680 nM; in [10], 1120 nM. Moreover, the TGI in assay [1] is 3.99 µM; in assay [2], 4.09 µM; in assay [3] it was 3.35 µM; in assay [4], 3.57 µM; in assay [5], 28.3 µM; in assay [6], 3 µM. Further, the total growth inhibition concentration (TGI) stood at 3.13 µM in assay [7], 4.59 µM in assay [8], 3.29 µM in [9] and 2.47 µM in assay [10].
